Series [1] is filed under the species Cavia porcellus. As to the kind of experiment: Antagonist activity at guinea pig atrial beta adrenergic receptor assessed as isometric contractions at 5 x 10^-5 M by force displacement transducer. Type of series: tissue-based. The conditions noted are these: Cardiac atrium.
For series [2], the system named is Cavia porcellus. As to the kind of experiment: Hypotensive activity at guinea pig assessed as decrease in blood pressure at 100 mg/kg, po after 1 hr. Format: functional, organism-based. Details: dose 100 mg/kg.
The test system of series [3] is Cavia porcellus. As to the kind of experiment: Hypotensive activity at guinea pig assessed as decrease in blood pressure at 100 mg/kg, po after 3 hrs. Type of series: functional, organism-based. More on the design: dose 100 mg/kg.
Series [4] relates to Cavia porcellus. Briefly: Hypotensive activity at guinea pig assessed as decrease in blood pressure at 100 mg/kg, po after 5 hrs. Type of series: functional, organism-based. Details: dose 100 mg/kg.
The nature of series [5]: Antagonist activity at guinea pig atrial beta adrenergic receptor assessed as isometric contractions by force displacement transducer. Type of series: tissue-based, Cavia porcellus, Cardiac atrium.
Series [6] deals with Cavia porcellus. Briefly: Hypotensive activity at guinea pig assessed as decrease in blood pressure at 50 mg/kg, po after 3 hrs (reference value: 112 +/- 2.6 to 122 +/- 2.7 mmHg). Type of series: functional.
For series [7], the system named is Cavia porcellus. Briefly: Toxicity in guinea pig assessed as increase in heart beating rate at 50 mg/kg, po. More on the design: dose 50 mg/kg, route oral. As to conditions: in vivo. Type of series: organism-based.
Series [8] deals with Cavia porcellus. Briefly: Hypotensive activity at guinea pig assessed as decrease in blood pressure at 50 mg/kg, po after 5 hrs (reference value: 112 +/- 2.6 to 122 +/- 2.7 mmHg). Format: functional.
In series [9] the test system is Cavia porcellus. As to the kind of experiment: Hypotensive activity at guinea pig assessed as decrease in blood pressure at 50 mg/kg, po after 1 hr (reference value: 112 +/- 2.6 to 122 +/- 2.7 mmHg). Format: functional.
Series [10] has as its system Cavia porcellus. Briefly: Toxicity in guinea pig assessed as depression in heart beating rate at 50 mg/kg, po relative to control. The conditions noted are these: in vivo. Type of series: organism-based. Details: dose 50 mg/kg, route oral.

SMILES strings stand for the structures. Calls of active or inactive are those of the source. No cut-off for these calls is given here.

Turning to `OC(CNC1=NCCN1)c1ccc2c(c1)OCO2` (stereo not given), the outcome in the series listed under Cavia porcellus [1], in the series on Cavia porcellus [2], in the series with Cavia porcellus [3] and in the series with Cavia porcellus [4] was inactive.
In general, pA2 refers to the negative logarithm of the molar antagonist concentration that doubles the agonist concentration needed for the same response. For the compound `CC(C)NCC(O)COC(=O)c1ccc2c(c1)OCO2.Cl` (stereo not given), in series [5], the pA2 came to 6.9. Also, the result in the series with Cavia porcellus [2], in the series with Cavia porcellus [3] and with Cavia porcellus [4] was inactive.
Regarding `CC(C)NCC(O)c1ccc2c(c1)OCO2.Cl` (stereo not given), the Activity was determined as 84 mmHg in the series on Cavia porcellus [6], 25% with Cavia porcellus [7], 87 mmHg with Cavia porcellus [8] and 97 mmHg in the series with Cavia porcellus [9]. Moreover, the pA2 in series [5] came to 6.2.
For `CC(C)NCC(O)c1ccc(NS(C)(=O)=O)cc1` (stereo not given) [SOTALOL], the values for the Activity in the series with Cavia porcellus [6], in the series on Cavia porcellus [8] and with Cavia porcellus [9] were 108 mmHg, 107 mmHg and 112 mmHg, respectively. Also, in [5], the pA2 turned out to be 6.8.
For `CNCC(O)COC(=O)c1ccc2c(c1)OCO2.O=C(O)C(=O)O` (stereo not given), in the series with Cavia porcellus [10], the Activity is below 10%. For the same compound, in series [5], the pA2 amounted to 5.3. Further, the result with Cavia porcellus [2], in the series with Cavia porcellus [3] and in the series on Cavia porcellus [4] was inactive.
On to `N=C(N)NCCc1ccc2c(c1)OCO2`, for which the result in the series filed under Cavia porcellus [1], in the series with Cavia porcellus [2], with Cavia porcellus [3] and in the series with Cavia porcellus [4] was inactive.
On to `CC(C)(C)NCC(O)COC(=O)c1ccc2c(c1)OCO2.Cl` (stereo not given), for which the pA2 in series [5] is recorded as 6.9. In addition, the outcome in the series on Cavia porcellus [2], in the series on Cavia porcellus [3] and with Cavia porcellus [4] was inactive.
As for `CC(C)NCC(O)COc1cccc2ccccc12` (stereo not given) [PROPRANOLOL], the Activity in the series on Cavia porcellus [6] is reported as 119 mmHg; with Cavia porcellus [8], 117 mmHg; in the series with Cavia porcellus [9] it was 141 mmHg.
Regarding `CC(C)NC(C)C(O)c1ccc2c(c1)OCO2.Cl` (stereo not given), the Activity was 91 mmHg in the series with Cavia porcellus [6], below 10% in the series with Cavia porcellus [10], 94 mmHg with Cavia porcellus [8] and 92 mmHg in the series on Cavia porcellus [9]. Further, the outcome in the series listed under Cavia porcellus [1] was inactive.
Regarding `c1cc2c(cc1CCNC1=NCCN1)OCO2`, the result in the series filed under Cavia porcellus [1], with Cavia porcellus [2], in the series with Cavia porcellus [3] and in the series with Cavia porcellus [4] was inactive.
With `CC(C)(C)NCC(O)c1ccc2c(c1)OCO2.Cl` (stereo not given), the Activity was 77 mmHg in the series with Cavia porcellus [6], 77 mmHg with Cavia porcellus [8] and 83 mmHg with Cavia porcellus [9]. Also, the pA2 in series [5] is on record as 6.5.
As for `NNc1nncc2ccccc12`, in the series filed under Cavia porcellus [1], the outcome was inactive.
In the case of `CC(C)NCC(O)/C=C/c1ccc2c(c1)OCO2` (stereo not given), the outcome in the series listed under Cavia porcellus [1], in the series with Cavia porcellus [2], in the series with Cavia porcellus [3] and in the series with Cavia porcellus [4] was inactive.
As for `N=C(N)NCC(O)c1ccc2c(c1)OCO2` (stereo not given), the result in the series listed under Cavia porcellus [1], in the series on Cavia porcellus [2], in the series with Cavia porcellus [3] and with Cavia porcellus [4] was inactive.
